# Measured values as given in patent US20050143362A1 (priority 2003, published 2005).
# Columns and labels:
# [1] = target: T1, sex hormone binding globulin (SHBG) (Homo sapiens, UniProt P04278); conditions: Pugeat et al. 1981; cited from earlier work
# T1 sequence (P04278 30-402): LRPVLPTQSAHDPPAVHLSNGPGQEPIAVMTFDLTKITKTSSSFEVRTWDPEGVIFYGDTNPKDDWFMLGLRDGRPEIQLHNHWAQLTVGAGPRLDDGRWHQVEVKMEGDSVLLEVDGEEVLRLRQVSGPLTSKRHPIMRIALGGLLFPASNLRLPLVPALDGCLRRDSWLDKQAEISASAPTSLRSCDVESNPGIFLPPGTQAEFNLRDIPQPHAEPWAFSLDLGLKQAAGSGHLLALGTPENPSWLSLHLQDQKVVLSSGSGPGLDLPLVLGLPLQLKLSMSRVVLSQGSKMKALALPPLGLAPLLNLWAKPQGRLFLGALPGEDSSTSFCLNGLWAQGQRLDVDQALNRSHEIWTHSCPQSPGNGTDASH
# [2] = system: hypogonadism in the adult male; assay: Illustrative examples: danazol capsules given to hypogonadal adult men; format: in vivo; conditions: after one month
# Excerpt: A person reports a lethargic and depressed mood. Blood tests show a hypogonadism in which total testosterone is borderline normal range but SHBG levels are higher than normal. Free testosterone levels are abnormally low and the patient is diagnosed as hypogonadal.
# A person reports a general physical weakening and decreased libido. Blood tests show a high total testosterone level but SHBG levels are also in the very high range. Free testosterone levels are abnormally low and the patient is diagnosed as hypogonadal.
# serum gonadotropins = conditions: Gelfand et al. 1976; cited from earlier work
# progesterone receptors = target: T2, progesterone receptors (Homo sapiens, UniProt P06401); conditions: Zurlo et al. 1990; cited from earlier work
# T2 sequence (P06401 1-933): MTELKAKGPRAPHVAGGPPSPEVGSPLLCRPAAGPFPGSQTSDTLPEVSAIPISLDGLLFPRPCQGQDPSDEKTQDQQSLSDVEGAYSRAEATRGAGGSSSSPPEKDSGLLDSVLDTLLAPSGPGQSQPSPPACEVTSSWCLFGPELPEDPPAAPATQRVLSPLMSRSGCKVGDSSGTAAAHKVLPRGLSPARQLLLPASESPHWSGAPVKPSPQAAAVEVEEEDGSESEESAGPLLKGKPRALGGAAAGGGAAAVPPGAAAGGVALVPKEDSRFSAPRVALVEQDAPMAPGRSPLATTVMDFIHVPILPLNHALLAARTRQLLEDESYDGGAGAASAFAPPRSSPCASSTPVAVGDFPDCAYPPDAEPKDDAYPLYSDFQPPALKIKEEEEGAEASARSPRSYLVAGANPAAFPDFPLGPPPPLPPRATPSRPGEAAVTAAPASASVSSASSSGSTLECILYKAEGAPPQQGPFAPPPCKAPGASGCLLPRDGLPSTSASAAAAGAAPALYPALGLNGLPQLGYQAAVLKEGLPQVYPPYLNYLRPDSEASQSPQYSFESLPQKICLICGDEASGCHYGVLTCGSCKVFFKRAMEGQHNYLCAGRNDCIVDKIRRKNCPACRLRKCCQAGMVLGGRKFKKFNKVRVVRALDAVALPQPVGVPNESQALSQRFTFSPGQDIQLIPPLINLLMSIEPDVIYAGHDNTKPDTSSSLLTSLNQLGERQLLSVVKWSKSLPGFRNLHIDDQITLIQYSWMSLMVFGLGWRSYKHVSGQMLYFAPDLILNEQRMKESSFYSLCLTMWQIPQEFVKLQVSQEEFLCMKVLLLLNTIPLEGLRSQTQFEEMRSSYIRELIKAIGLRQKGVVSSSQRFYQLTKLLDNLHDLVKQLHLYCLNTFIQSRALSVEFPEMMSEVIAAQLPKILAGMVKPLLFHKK
# [3] = cited from earlier work
# [4] = Example 1: person, one 25 milligram capsule three times daily
# [5] = Example 2: person, one 25 milligram capsule twice a day
structure (smiles),measurement,setting,value
"C#C[C@]1(O)CC[C@H]2[C@@H]3CCC4=Cc5oncc5C[C@]4(C)[C@H]3CC[C@@]21C [danazol, 17α-pregn-4-en-20-yno[2,3-d]isoxazol-17-ol]",displacement of testosterone from SHBG,[1],competitive displacer of testosterone
same,SHBG level (blood test),[2]; [4],remained stable
same,free testosterone (blood test),[2]; [4],increased
same,total testosterone level (blood test),[2]; [4],remained stable
same,vigor and mood reported by patient,[2]; [4],greater vigor and an improved mood
same,SHBG level (blood test),[2]; [5],lower levels
same,free testosterone (blood test),[2]; [5],new higher level
same,libido reported by patient,[2]; [5],increased libido
same,serum gonadotropins,serum gonadotropins,dose-dependent reduction
same,binding to progesterone receptors,progesterone receptors,competitive binding
same,androgenic potential,[3]; Gelfand et al. 1976,markedly attenuated
same,myogenic (anabolic) activity,[3]; Gelfand et al. 1976,mildly myogenic
same,androgen-like activity,[3]; Potts et al. 1980,weak
same,anabolic response,"[3]; whole males, low dosages, Dmowski et al. 1971","increased and stable, long term anabolic response"
